What is called EC50 is the concentration at which the effect is half-maximal.

Structures are written as SMILES. Counter-ions that a name gives are not always drawn.

The test has as its target T1, muscarinic M1 receptor (Homo sapiens, UniProt P11229).
T1 sequence (P11229 1-460): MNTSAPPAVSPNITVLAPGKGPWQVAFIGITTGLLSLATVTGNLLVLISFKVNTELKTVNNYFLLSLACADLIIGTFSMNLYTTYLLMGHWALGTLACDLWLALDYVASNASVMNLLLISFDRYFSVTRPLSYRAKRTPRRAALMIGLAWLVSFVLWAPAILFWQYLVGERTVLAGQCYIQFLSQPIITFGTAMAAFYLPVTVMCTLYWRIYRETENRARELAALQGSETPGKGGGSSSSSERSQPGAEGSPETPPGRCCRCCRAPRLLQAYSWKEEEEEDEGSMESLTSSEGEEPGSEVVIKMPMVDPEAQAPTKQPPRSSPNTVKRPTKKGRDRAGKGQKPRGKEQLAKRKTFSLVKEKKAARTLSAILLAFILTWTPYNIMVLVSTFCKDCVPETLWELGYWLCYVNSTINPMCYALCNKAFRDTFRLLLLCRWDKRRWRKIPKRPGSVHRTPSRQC
Kind of test: Allosteric potency EC50 for muscarinic M1 receptor (CHO pCRE-Luc reporter assay). As to conditions: in presence of EC20 of acetylcholine; CHO cells, luciferase reporter, 4 hours. Type of test: cell-based. The procedure:
Determination of Allosteric Potency EC50 Values for Muscarinic M1 Receptor:
A stable CHO cell line expressing recombinant human Muscarinic M1 receptor and pCRE-Luc reporter system was used for cell-based assay. The assay offers a non-radioactive based approach to determine binding of a compound to GPCRs. In this specific assay, the level of intracellular cyclic AMP which is modulated by activation or inhibition of the receptor is measured. The recombinant cells harbor luciferase reporter gene under the control of cyclic AMP response element.
The above cells were grown in 96 well clear bottom white plates in Hams F12 medium containing 10% fetal bovine serum (FBS). Prior to the addition of compounds or standard agonist, cells were serum starved overnight. Increasing concentrations of test compounds were added along with EC20 of acetylcholine in OptiMEM medium to the cells. The incubation was continued at 37° C. in CO2 incubator for 4 hours. Medium was removed and cells were washed with phosphate buffered saline. The cells were lysed and luciferase activity was measured in a Luminometer. Luminescence units were plotted against the compound concentrations using Graphpad software. EC50 values of the compounds were defined as the concentration required in stimulating the luciferase activity by 50% in presence of EC20 of acetylcholine and the results are provided in table 1.
A general note: In a reporter assay the amount or activity of a reporter protein is the signal.
As for `Cn1ccc2c(Cc3ccc(-c4cscn4)cc3)cc(C(=O)NCC(C)(C)O)nc21` [Example 24, N-(2-Hydroxy-2-methylpropyl)-4-[4-(thiazol-4-yl)benzyl]-1-methyl-1H-pyrrol[2,3-b]pyridine-6-carboxamide], the EC50 was 834 nM.
In the case of `Cn1cc(-c2ccc(Cc3cc(C(=O)N[C@H]4CCCC[C@@H]4O)nc4c3ccn4C)cc2)cn1` [Example 7, N-[(1S,2S)-2-Hydroxycyclohexyl]-4-[4-(1-methyl-1H-pyrazol-4-yl)benzyl]-1-methyl-1H-pyrrolo[2,3-b]pyridine-6-carboxamide], the EC50 worked out at 8 nM.
In the case of `Cn1cc(-c2ccc(Cc3cc(C(=O)N[C@H]4CCCC[C@@H]4O)nc4c3CCNC4)cc2)cn1` [Example 90, N-[(1S,2S)-2-Hydroxycyclohexyl]-4-[4-(1-methyl-1H-pyrazol-4-yl)-benzyl-5,6,7,8-tetrahydro[1,7]naphthyridine-2-carboxamide Hydrochloride], the EC50 was 18 nM.
The figure for `Cc1ccc(Cc2cc(C(=O)N[C@H]3CCCC[C@@H]3O)nc3c2ccn3C)cn1` [Example 9, N-[(1S,2S)-2-Hydroxycyclohexyl]-4-(2-methylpyridin-5-ylmethyl)-1-methyl-1H-pyrrolo[2,3-b]pyridine-6-carboxamide] is 1570 nM; for `O=C(N[C@H]1CCCC[C@@H]1O)c1cc(Cc2ccc(Cl)nc2)c2ccn(CCF)c2n1` [Example 23, N-[(1S,2S)-2-Hydroxycyclohexyl]-4-(2-chloropyridin-5-ylmethyl)-1-(2-fluoroethyl)-1H-pyrrolo[2,3-b]pyridine-6-carboxamide] it is 727 nM; for `Cn1ccc2c(Cc3ccc(F)cc3)cc(C(=O)N[C@H]3CCCC[C@@H]3O)nc21` [Example 4, N-[(1S,2S)-2-Hydroxycyclohexyl]-4-(4-fluorobenzyl)-1-methyl-1H-pyrrolo[2,3-b]pyridine-6-carboxamide] it is 811 nM.
Next, `Cn1ccc2c(Cc3ccnc(F)c3)cc(C(=O)N[C@@H]3CCOC[C@H]3O)nc21` (single isomer, unassigned; isomer-ii) [Example 40, trans-N-(3-Hydroxytetrahydropyran-4-yl)-4-(2-fluoropyridin-4-ylmethyl)-1-methyl-1H-pyrrolo[2,3-b]pyridine-6-carboxamide (Isomer-II)]: 755 nM; `CN1CCc2c(Cc3ccc(Cl)nc3)cc(C(=O)N[C@H]3CCCC[C@@H]3O)nc21` [Example 72, N-[(1S,2S)-2-Hydroxycyclohexyl]-4-(2-chloropyridin-5-ylmethyl)-1-methyl-2,3-dihydro-1H-pyrrolo[2,3-b]pyridine-6-carboxamide]: 494 nM.
The figure for `Cn1ccc2c(Cc3ccc(-c4cscn4)cc3)cc(C(=O)N[C@@H]3CCOC[C@H]3O)nc21` (single isomer, unassigned; isomer-i) [Example 54, trans-N-(3-Hydroxytetrahydropyran-4-yl)-4-[4-(thiazol-4-yl)benzyl]-1-methyl-1H-pyrrolo[2,3-b]pyridine-6-carboxamide (Isomer-I)] is 764 nM; for `Cn1ccc2c(Cc3ccc(F)c(F)c3)cc(C(=O)N[C@@H]3CCOC[C@H]3O)nc21` (single isomer, unassigned; isomer-i) [Example 51, trans-N-(3-Hydroxytetrahydropyran-4-yl)-4-(3,4-difluorobenzyl)-1-methyl-1H-pyrrolo[2,3-b]pyridine-6-carboxamide (Isomer-I)] it is 1820 nM; for `Cn1ccc2c(Cc3ccnc(F)c3)cc(C(=O)N[C@@H]3CCOC[C@H]3O)nc21` (single isomer, unassigned; isomer-i) [Example 39, trans-N-(3-Hydroxytetrahydropyran-4-yl)-4-(2-fluoropyridin-4-ylmethyl)-1-methyl-1H-pyrrolo[2,3-b]pyridine-6-carboxamide (Isomer-I)] it is 968 nM.
Take `Cn1ccc2c(Cc3ccc(-c4cscn4)cc3)cc(C(=O)N[C@H]3CCCC[C@@H]3O)nc21` [Example 5, N-[(1S,2S)-2-Hydroxycyclohexyl]-4-(4-thiazol-4-ylbenzyl)-1-methyl-1H-pyrrolo[2,3-b]pyridine-6-carboxamide]: the EC50 is 130 nM.
The figure for `Cn1ccc2c(Cc3ccc(F)cc3)cc(C(=O)N[C@@H]3CCOC[C@@H]3O)nc21` (racemic) [Example 35, Racemic cis-N-(3-Hydroxytetrahydropyran-4-yl)-4-(4-fluorobenzyl)-1-methyl-H-pyrrolo[2,3-b]pyridine-6-carboxamide] is 1470 nM.
Next, `COc1ccc(Cc2cc(C(=O)N[C@H]3CCCC[C@@H]3O)nc3c2CCN3C)cc1` [Example 77, N-[(1S,2S)-2-Hydroxycyclohexyl]-4-(4-methoxybenzyl)-1-methyl-2,3-dihydro-1H-pyrrolo[2,3-b]pyridine-6-carboxamide]: 342 nM; `Cn1cc(-c2ccc(Cc3cc(C(=O)N[C@H]4CCCC[C@@H]4O)nc4c3OCCO4)cc2)cn1` [Example 106, N-[(1S,2S)-2-Hydroxycyclohexyl]-8-[4-(1-methyl-1H-pyrazol-4-yl)-benzyl]-2,3-dihydro-[1,4]dioxino[2,3-b]pyridine-6-carboxamide]: 14 nM; `Cn1cc(-c2ccc(Cc3cc(C(=O)N[C@H]4CCCC[C@@H]4O)nc4c3ccn4C)c(F)c2)cn1` [Example 8, N-[(1S,2S)-2-Hydroxycyclohexyl]-4-[2-fluoro-4-(1-methyl-1H-pyrazol-4-yl)benzyl]-1-methyl-1H-pyrrolo[2,3-b]pyridine-6-carboxamide]: 17 nM.
The figure for `Cn1ccc2c(Cc3ccc(-c4cscn4)cc3)cc(C(=O)N[C@@H]3CCOC[C@H]3O)nc21` (single isomer, unassigned; isomer-ii) [Example 55, trans-N-(3-Hydroxytetrahydropyran-4-yl)-4-[4-(thiazol-4-yl)benzyl]-1-methyl-1H-pyrrolo[2,3-b]pyridine-6-carboxamide (Isomer-II)] is 32 nM.
For `Cn1cc(-c2ccc(Cc3cc(C(=O)NC4CCOCC4O)nc4c3ccn4C)cc2)cn1` (racemic) [Example 56, Racemic trans-N-(3-Hydroxytetrahydropyran-4-yl)-4-[4-(1-methyl-1H-pyrazol-4-yl)benzyl]-1-methyl-1H-pyrrolo[2,3-b]pyridine-6-carboxamide], the EC50 was 38 nM.
Next, `Cn1ccc2c(Cc3cc(F)ncc3F)cc(C(=O)N[C@H]3CCCC[C@@H]3O)nc21` [Example 11, N-[(1S,2S)-2-Hydroxycyclohexyl]-4-(2,5-difluoropyridin-4-ylmethyl)-1-methyl-1H-pyrrolo[2,3-b]pyridine-6-carboxamide]: 1720 nM; `Cn1ccc2c(Cc3ccc(-c4ccc(F)nc4)nc3)cc(C(=O)N[C@H]3CCCC[C@@H]3O)nc21` [Example 13, N-[(1S,2S)-2-Hydroxycyclohexyl]-4-(2′-fluoro-[2,5]bipyridinyl-5-ylmethyl)-1-methyl-1H-pyrrolo[2,3-b]pyridine-6-carboxamide]: 617 nM; `Cn1ccc2c(Cc3ccc(F)nc3)cc(C(=O)N[C@H]3CCCC[C@@H]3O)nc21` [Example 3, N-[(1S,2S)-2-Hydroxycyclohexyl]-4-(2-fluoropyridin-5-ylmethyl)-1-methyl-1H-pyrrolo[2,3-b]pyridine-6-carboxamide]: 977 nM.

The values are drawn from patent publication US11040026B2, “Muscarinic M1 receptor positive allosteric modulators” (SUVEN LIFE SCIENCES LIMITED, priority 2016, dated 2021).
